Data as given in article PMC4773904 (The New England journal of medicine, 2015).

What was measured:
[1] = test system: Ba/F3 cells expressing EML4-ALK C1156Y–L1198F; assay: Ba/F3 cell-survival assay; assay type: cell-based
[2] = test system: Ba/F3 cells expressing EML4-ALK L1198F; assay: Ba/F3 cell-survival assay; assay type: cell-based
[3] = test system: metastatic ALK-rearranged NSCLC; assay: Case report: treatment course of a patient with metastatic ALK-rearranged NSCLC; assay type: in vivo, human; details: first restaging CT after 5 weeks of treatment, phase 1 trial, single patient
ALK = details: in cell lines; cited from earlier work
previously treated NSCLC = details: patients with previously treated NSCLC, phase 3 trial; cited from earlier work

Row | Compound | Sensitivity in cell-survival assay (in words) [1] | Sensitivity in cell-survival assay (in words) [2] | Reduction in tumor burden [3] | Potency against ALK (ALK) | Response rate (previously treated NSCLC)
1 | C[C@H]1Oc2cc(cnc2N)-c2c(nn(C)c2C#N)CN(C)C(=O)c2ccc(F)cc21 [lorlatinib, (10R)-7-amino-12-fluoro-2,10,16-trimethyl-15-oxo-10,15,16,17-tetrahydro-2H-8,4-(metheno)pyrazolo [4,3-h][2,5,11]-benzoxadiazacyclotetra decine-3-carbonitrile] | resistant | variable degrees of resistance | 41% | subnanomolar to low nanomolar | –
2 | CCC1=C[C@@H]2CN(C1)Cc1c([nH]c3ccccc13)[C@@](C(=O)OC)(c1cc3c(cc1OC)N(C)[C@H]1[C@@](O)(C(=O)OC)[C@H](OC(C)=O)[C@]4(CC)C=CCN5CC[C@]31[C@@H]54)C2 [vinorelbine] | – | – | – | – | 0.8%
